# Test results: patent publication EP0093484A2, “Antibacterial monic acid derivatives” (BEECHAM GROUP PLC, priority 1982, dated 1983)
# Key:
# Ps. aeruginosa 10662 = assay: Human bacteria, MIC by serial dilution in nutrient agar; format: cell-based; settings: nutrient agar with 5% chocolated horse blood, 18 hours at 37°C
# P. mirabilis 889 = assay: as above; format: cell-based; settings: nutrient agar with 5% chocolated horse blood, 18 hours at 37°C
# Strep. faecalis I = assay: as above; format: cell-based; settings: nutrient agar with 5% chocolated horse blood, 18 hours at 37°C
# Strep. uberis SPU1 = assay: Veterinary bacteria, MIC by two fold serial dilution in agar; settings: Strep. uberis SPU1; Diagnostic Sensitivity Test Agar; 18 hours at 37°C
# Experimental: (§1) The activity of the compounds of the Examples against various organisms important in veterinary infections was determined using two fold serial dilutions in Diagnostic Sensitivity Test Agar inoculated with 10^4 organisms.
# M. hyorhinis ATCC 23234 = assay: Anti-mycoplasmal activity, MIC in Friis broth agarose; format: cell-based; settings: Friis broth solidified with 0.9% agarose, 6 days incubation at 37°C
# M. bovis NCTC 10131 = assay: microbe, parasite or virus in culture; format: cell-based; settings: M. bovis NCTC 10131; Friis broth solidified with 0.9% agarose; 6 days incubation at 37°C
# S. dublin S7 = assay: Veterinary bacteria, MIC by two fold serial dilution in agar; settings: S. dublin S7; Diagnostic Sensitivity Test Agar; 18 hours at 37°C
# Experimental: as §1
# Strep. pneumoniae CN33 = assay: Human bacteria, MIC by serial dilution in nutrient agar; format: cell-based; settings: nutrient agar with 5% chocolated horse blood, 18 hours at 37°C
# [1] = tested on: Corynebacterium xerosis 9755; assay: as above; format: cell-based; settings: nutrient agar with 5% chocolated horse blood, 18 hours at 37°C
# Strep. dysgalactiae SPD1 = assay: Veterinary bacteria, MIC by two fold serial dilution in agar; settings: Strep. dysgalactiae SPD1; Diagnostic Sensitivity Test Agar; 18 hours at 37°C
# Experimental: as §1
# [2] = tested on: Erysipelothrix rhusiopathiae NCTC 8163; assay: as above; settings: Erysipelothrix rhusiopathiae NCTC 8163; Diagnostic Sensitivity Test Agar; 18 hours at 37°C
# Experimental: as §1
# M. dispar NCTC 10125 = assay: Anti-mycoplasmal activity, MIC in Friis broth agarose; format: cell-based; settings: Friis broth solidified with 0.9% agarose, 6 days incubation at 37°C
# Staph. aureus Russell = assay: Human bacteria, MIC by serial dilution in nutrient agar; format: cell-based; settings: nutrient agar with 5% chocolated horse blood, 18 hours at 37°C
# M. suipneumoniae JF 435 = assay: Anti-mycoplasmal activity, MIC in Friis broth agarose; format: cell-based; settings: Friis broth solidified with 0.9% agarose, 6 days incubation at 37°C
# Sarcina lutea 8340 = assay: Human bacteria, MIC by serial dilution in nutrient agar; format: cell-based; settings: nutrient agar with 5% chocolated horse blood, 18 hours at 37°C
# [3] = tested on: Haemophilus influenzae Q1; assay: as above; format: cell-based; settings: nutrient agar with 5% chocolated horse blood, 18 hours at 37°C
# E. coli ESS = assay: as above; format: cell-based; settings: nutrient agar with 5% chocolated horse blood, 18 hours at 37°C
# E. coli E1 = assay: Veterinary bacteria, MIC by two fold serial dilution in agar; settings: E. coli E1; Diagnostic Sensitivity Test Agar; 18 hours at 37°C
# Experimental: as §1
# K. aerogenes A = assay: Human bacteria, MIC by serial dilution in nutrient agar; format: cell-based; settings: nutrient agar with 5% chocolated horse blood, 18 hours at 37°C
# M. suipneumoniae MS16 = assay: Anti-mycoplasmal activity, MIC in Friis broth agarose; format: cell-based; settings: Friis broth solidified with 0.9% agarose, 6 days incubation at 37°C
# [4] = tested on: Strep. pyogenes R80/421-A; assay: Human bacteria, MIC by serial dilution in nutrient agar; format: cell-based; settings: nutrient agar with 5% chocolated horse blood, 18 hours at 37°C
# [5] = tested on: Staph. aureus B4 (pen. resistant); assay: Veterinary bacteria, MIC by two fold serial dilution in agar; settings: Staph. aureus B4 (pen. resistant); Diagnostic Sensitivity Test Agar; 18 hours at 37°C
# Experimental: as §1
# [6] = tested on: Corynebacterium pyogenes CY1; assay: as above; settings: Corynebacterium pyogenes CY1; Diagnostic Sensitivity Test Agar; 18 hours at 37°C
# Experimental: as §1
# Bacillus subtilis 6633 = assay: Human bacteria, MIC by serial dilution in nutrient agar; format: cell-based; settings: nutrient agar with 5% chocolated horse blood, 18 hours at 37°C
# Strep. agalactiae 2788-B = assay: as above; format: cell-based; settings: nutrient agar with 5% chocolated horse blood, 18 hours at 37°C
# M. suipneumoniae TAM 6N = assay: Anti-mycoplasmal activity, MIC in Friis broth agarose; format: cell-based; settings: Friis broth solidified with 0.9% agarose, 6 days incubation at 37°C
# [7] = tested on: Pasteurella multocida 1633; assay: Human bacteria, MIC by serial dilution in nutrient agar; format: cell-based; settings: nutrient agar with 5% chocolated horse blood, 18 hours at 37°C
# M. suipneumoniae HK(2) = assay: Anti-mycoplasmal activity, MIC in Friis broth agarose; format: cell-based; settings: Friis broth solidified with 0.9% agarose, 6 days incubation at 37°C
# [8] = tested on: Neisseria catarrhalis 1502; assay: Human bacteria, MIC by serial dilution in nutrient agar; format: cell-based; settings: nutrient agar with 5% chocolated horse blood, 18 hours at 37°C
# [9] = tested on: Haemophilus influenzae Wy21; assay: as above; format: cell-based; settings: nutrient agar with 5% chocolated horse blood, 18 hours at 37°C
# [10] = tested on: Staph. aureus 152 (pen. sens.); assay: Veterinary bacteria, MIC by two fold serial dilution in agar; settings: Staph. aureus 152 (pen. sens.); Diagnostic Sensitivity Test Agar; 18 hours at 37°C
# Experimental: as §1
# M. suipneumoniae UCD 1 = assay: Anti-mycoplasmal activity, MIC in Friis broth agarose; format: cell-based; settings: Friis broth solidified with 0.9% agarose, 6 days incubation at 37°C
# [11] = tested on: M. hyosynoviae ATCC 25591; assay: as above; format: cell-based; settings: Friis broth solidified with 0.9% agarose, 6 days incubation at 37°C
# E. coli NCTC 10418 = assay: Veterinary bacteria, MIC by two fold serial dilution in agar; settings: E. coli NCTC 10418 (veterinary panel); Diagnostic Sensitivity Test Agar; 18 hours at 37°C
# Experimental: as §1
# Past. multocida PA1 = assay: as above; settings: Past. multocida PA1; Diagnostic Sensitivity Test Agar; 18 hours at 37°C
# Experimental: as §1
# Bord. bronchiseptica B08 = assay: as above; settings: Bord. bronchiseptica B08; Diagnostic Sensitivity Test Agar; 18 hours at 37°C
# Experimental: as §1
# M. gallisepticum S6 = assay: Anti-mycoplasmal activity, MIC in Friis broth agarose; format: cell-based; settings: Friis broth solidified with 0.9% agarose, 6 days incubation at 37°C
# M. suipneumoniae Str. 11 = assay: as above; format: cell-based; settings: Friis broth solidified with 0.9% agarose, 6 days incubation at 37°C
# Strep. spp. 64/848-C = assay: Human bacteria, MIC by serial dilution in nutrient agar; format: cell-based; settings: nutrient agar with 5% chocolated horse blood, 18 hours at 37°C
# M. pneumoniae ATCC 15492 = assay: Anti-mycoplasmal activity, MIC in Friis broth agarose; format: cell-based; settings: Friis broth solidified with 0.9% agarose, 6 days incubation at 37°C
# Past. multocida PA2 = assay: Veterinary bacteria, MIC by two fold serial dilution in agar; settings: Past. multocida PA2; Diagnostic Sensitivity Test Agar; 18 hours at 37°C
# Experimental: as §1
substance,measurement,setting,value
m-Methylthiobenzyl monate A [Example 5],MIC,Ps. aeruginosa 10662,>100 µg/mL
same,MIC,P. mirabilis 889,>100 µg/mL
same,MIC,Strep. faecalis I,100 µg/mL
same,MIC,Strep. uberis SPU1,.07 µg/mL
same,MIC,M. hyorhinis ATCC 23234,0.25 µg/mL
same,MIC,M. bovis NCTC 10131,0.025 µg/mL
same,MIC,S. dublin S7,>80 µg/mL
same,MIC,Strep. pneumoniae CN33,1.0 µg/mL
same,MIC,[1],>100 µg/mL
same,MIC,Strep. dysgalactiae SPD1,.07 µg/mL
same,MIC,[2],5 µg/mL
same,MIC,M. dispar NCTC 10125,0.1 µg/mL
same,MIC,Staph. aureus Russell,1.0 µg/mL
same,MIC,M. suipneumoniae JF 435,0.5 µg/mL
same,MIC,Sarcina lutea 8340,>100 µg/mL
same,MIC,[3],1.0 µg/mL
same,MIC,E. coli ESS,5.0 µg/mL
same,MIC,E. coli E1,>80 µg/mL
same,MIC,K. aerogenes A,>100 µg/mL
same,MIC,M. suipneumoniae MS16,0.25 µg/mL
same,MIC,[4],0.1 µg/mL
same,MIC,[5],.156 µg/mL
same,MIC,[6],>80 µg/mL
same,MIC,Bacillus subtilis 6633,0.1 µg/mL
same,MIC,Strep. agalactiae 2788-B,1.0 µg/mL
same,MIC,M. suipneumoniae TAM 6N,0.5 µg/mL
same,MIC,[7],10 µg/mL
same,MIC,M. suipneumoniae HK(2),0.5 µg/mL
same,MIC,[8],0.5 µg/mL
same,MIC,[9],1.0 µg/mL
same,MIC,[10],.156 µg/mL
same,MIC,M. suipneumoniae UCD 1,0.5 µg/mL
same,MIC,[11],0.5 µg/mL
same,MIC,E. coli NCTC 10418,>80 µg/mL
same,MIC,Past. multocida PA1,2.5 µg/mL
same,MIC,Bord. bronchiseptica B08,10 µg/mL
same,MIC,M. gallisepticum S6,5.0 µg/mL
same,MIC,M. suipneumoniae Str. 11,0.25 µg/mL
same,MIC,Strep. spp. 64/848-C,1.0 µg/mL
same,MIC,M. pneumoniae ATCC 15492,5.0 µg/mL
same,MIC,Past. multocida PA2,.625 µg/mL
